Source: ChEMBL document CHEMBL1135180, “Synthesis and anti-influenza virus activity of 4-guanidino-7-substituted Neu5Ac2en derivatives” (Bioorg Med Chem Lett, 2002)
Values after ≈ are worked out from the molar mass of the structure shown.

How the values were obtained:
Influenza A virus = experiment: Inhibition of plaque formation; format: functional, organism-based
[1] = biological target: Neuraminidase (Influenza A virus (A/Puerto Rico/8/1934(H1N1)), UniProt P03468); experiment: Inhibition of sialidase activity; format: functional, Influenza A virus (strain: A/PR/8/34)
Neuraminidase (Influenza A virus (A/Puerto Rico/8/1934(H1N1)), UniProt P03468), sequence (P03468 whole entry): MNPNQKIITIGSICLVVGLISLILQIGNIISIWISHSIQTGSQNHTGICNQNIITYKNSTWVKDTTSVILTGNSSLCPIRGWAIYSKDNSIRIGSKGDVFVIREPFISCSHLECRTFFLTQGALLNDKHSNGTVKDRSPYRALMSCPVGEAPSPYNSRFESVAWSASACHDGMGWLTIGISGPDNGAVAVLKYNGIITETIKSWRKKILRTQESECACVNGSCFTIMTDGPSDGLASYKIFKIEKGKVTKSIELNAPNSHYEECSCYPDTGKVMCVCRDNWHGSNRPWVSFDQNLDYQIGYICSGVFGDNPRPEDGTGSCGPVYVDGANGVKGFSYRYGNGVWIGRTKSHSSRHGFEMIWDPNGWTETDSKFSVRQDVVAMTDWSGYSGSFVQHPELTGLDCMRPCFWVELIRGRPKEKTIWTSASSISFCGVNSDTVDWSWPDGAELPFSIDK

For `CC(=O)N[C@@H]1[C@@H](N=C(N)N)C=C(C(=O)O)O[C@H]1C[C@H](O)CO.O=C(O)C(F)(F)F`, which IC50 (Influenza A virus) is on record?
The IC50 was 10 ng/mL.

And the IC50 [1]?
The IC50 was 93 nM.

For `CCC(=O)N[C@@H]([C@@H]1OC(C(=O)O)=C[C@H](N=C(N)N)[C@H]1NC(C)=O)[C@H](O)CO.O=C(O)C(F)(F)F`, which IC50 (Influenza A virus) is on record?
The IC50 was 4 ng/mL.

What about the IC50 [1] of the same compound?
The IC50 was 19.9 nM.

Which IC50 (Influenza A virus) does the source give for `CC(=O)N[C@H]1[C@H]([C@H](N)[C@H](O)CO)OC(C(=O)O)=C[C@@H]1NC(=N)N.O=C(O)C(F)(F)F` here?
Its IC50 is 20 ng/mL.

What about the IC50 [1] of the same compound?
The IC50 was 84 nM.

`CO[C@@H]([C@@H]1OC(C(=O)O)=C[C@H](N=C(N)N)[C@H]1NC(C)=O)[C@H](O)CO.O=C(O)C(F)(F)F` was tested. Which IC50 (Influenza A virus) did it give?
The IC50 was 3 ng/mL.

Which results are given for `CCCCCCCC(=O)N[C@@H]([C@@H]1OC(C(=O)O)=C[C@H](N=C(N)N)[C@H]1NC(C)=O)[C@H](O)CO.O=C(O)C(F)(F)F`?
IC50 (Influenza A virus): 100 ng/mL; IC50 [1]: 84 nM

Which IC50 (Influenza A virus) does the source give for `CC(=O)N[C@H]1[C@H]([C@H](N=[N+]=[N-])[C@H](O)CO)OC(C(=O)O)=C[C@@H]1NC(=N)N.O=C(O)C(F)(F)F` here?
The IC50 was 0.3 ng/mL.

What about the IC50 [1] of the same compound?
Its IC50 is 3.39 nM.

Which results are given for `CC(=O)N[C@H]1[C@H]([C@H](F)[C@H](O)CO)OC(C(=O)O)=C[C@@H]1NC(=N)N.O=C(O)C(F)(F)F`?
IC50 (Influenza A virus): 1.8 ng/mL; IC50 [1]: 1.78 nM

`CC(=O)N[C@H]1[C@H]([C@H](O)[C@H](O)CO)OC(C(=O)O)=C[C@@H]1NC(=N)N` [ZANAMIVIR] was tested. Which IC50 (Influenza A virus) did it give?
The IC50 was 1 ng/mL (≈ 3.01 nM).

How did the IC50 (Influenza A virus) turn out when `CCCCCCCCCCCCCCCC(=O)N[C@@H]([C@@H]1OC(C(=O)O)=C[C@H](N=C(N)N)[C@H]1NC(C)=O)[C@H](O)CO.O=C(O)C(F)(F)F` was run?
Its IC50 is 80 ng/mL.

And the IC50 [1]?
Its IC50 is 68.7 nM.

`CC(=O)N[C@@H]1[C@@H](NC(=N)N)C=C(C(=O)O)O[C@H]1C(F)(F)[C@H](O)CO.O=C(O)C(F)(F)F` was tested. Which IC50 (Influenza A virus) did it give?
Its IC50 is 400 ng/mL.

And the IC50 [1]?
Its IC50 is 1030 nM.

Which IC50 (Influenza A virus) does the source give for `CCO[C@@H]([C@@H]1OC(C(=O)O)=C[C@H](N=C(N)N)[C@H]1NC(C)=O)[C@H](O)CO.O=C(O)C(F)(F)F` here?
The IC50 was 0.7 ng/mL.

And the IC50 [1]?
The IC50 was 30.8 nM.

`CC(=O)N[C@@H]([C@@H]1OC(C(=O)O)=C[C@H](N=C(N)N)[C@H]1NC(C)=O)[C@H](O)CO` was tested. Which IC50 [1] did it give?
Its IC50 is 37.1 nM.
